The nature of data set [1]: Example 1 formulation stability test: overnight (~18 hours) storage at −20° C., 5° C. and 20° C., visual observation. The data set is classed as physicochemical. The settings on record: pH 4.75. As for the experimental part: Formulation solutions as described in Table 3 below were prepared and divided in to three equal portions that were stored overnight (~18 hours) at −20° C., 5° C. and 20° C., respectively. The formulations were observed, and the characteristics reported in Table 3 were noted, immediately for RT, immediately upon removing 5° C. formulations from refrigerator, and upon thawing of −20° C. formulations. Clear solutions of Compound (1) were obtained at pH 4.75 at concentrations of ≤17.5 mg/mL.

The nature of data set [2]: Solubility of Compound (1) in acetic acid. Format: physicochemical. The settings on record: organic solvent or mixture, read-out: Solubility in acetic acid (obtainable solution concentration). The method, then:
In particular, solutions of greater than 300 mg/mL are obtainable.

The values that follow come from US12697336B2, “RUC-4 formulations” (CeleCor Therapeutics, Inc., priority 2021, dated 2026).

For the molecule `NCC(=O)Nc1cncc(-c2nn3c(=O)cc(N4CCNCC4)nc3s2)c1` [Compound (1)], the “Concentration at which clear solutions were obtained” value in data set [1] was not above 17500 µg/mL. Besides, the solubility in data set [2] was more than 300 mg/mL.
